Results taken from US5045566A, “Novel imidate insecticides” (ICI Americas Inc., priority 1989, dated 1991).

Assays:
Type in all cases: in vivo
[1] = system: Black Bean Aphid [Aphis fabae (Scop.)]; assay: Black bean aphid spray test on nasturtium (BBA), 48 hours; details: percent of test compound in sprayed solution
How it was run: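 LC50, given as percent test compound in the sprayed liquid, was calculated from dosage-mortality curves using concentrations from 0.05% downward. Sprays in 50:50 acetone-water went to runoff on ~5 cm nasturtiums carrying 25-50 aphids of mixed ages, one day after infestation. Deaths were counted 48 h later under greenhouse conditions.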

[2] = system: Tobacco Budworm [Heliothis virescens (Fabricius)] eggs; assay: Tobacco budworm eggs (TBW-E); details: percent in solution; 2-day old eggs
How it was run: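 Paper towel patches bearing 2-day old eggs were dipped in acetone solutions of compound, then set in petri dishes over larval rearing medium at 78° F. Mortality was scored once all control eggs had hatched and larvae were feeding. LC50, from dosage-mortality curves, is given as percent compound in solution.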

[3] = system: Maize weevil [Sitophilus zeamais (Motschulsky)]; assay: Maize weevil on dipped corn seeds (MW), 48 hours; details: percent in solution, adult weevils
Experimental: The compounds in Tables 1 and 2 above were tested for insecticidal activity using the following testing procedures. LC50 values, based on the results of these tests and calculated according to dosage-mortality curves, are expressed in Table 3.
Maize weevil [Sitophilus zeamais (Motschulsky)]:
Test compounds were diluted in a 50:50 acetone:water solution. Four corn seeds [Zea mays (L.)] which had been immersed in test solutions for 2-3 seconds and allowed to dry were placed in containers together with 10 adult weevils. The containers were covered and kept at a temperature of about 25° C. Mortality was recorded after 48 hours. Test concentrations ranged from 0.01% down to that at which 50% mortality occurred. The LC50 values are expressed below in Table 3 under the heading "MW" in terms of percent of the test compound in solution.

[4] = system: Housefly [Musca domestica]; assay: Housefly contact mortality in dishes (HF), 48 hours; details: μg of test compound per 25 female flies
How it was run: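 Residual contact test: acetone dilution, 0.01% peanut oil spreader, solvent evaporated; 25 ♀ flies (1-2 d old) per cage; sugar-water plug; 48 h mortality read. LC50 in μg/25 female flies, from dose-mortality curves; top dose 100 μg/25 flies.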

[5] = system: Cabbage Looper [Trichoplusia ni (Hubner)]; assay: Cabbage looper leaf dip (CL), 3-5 days; details: percent in solution, second-instar larvae
How it was run: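 Compounds in 50-50 acetone-water were applied by dipping squash cotyledons (about 1×1.5 in) for 2-3 s; dried leaves went into petri dishes on moist filter paper with 5 second-instar larvae under high humidity. Mortality was scored after 3-5 days; LC50 from dosage-mortality curves, as percent compound in solution.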

| SMILES | LC50 BBA [1] [%] | LC50 TBW E (eggs) [2] [%] | LC50 MW [3] [%] | LC50 HF [4] [µg] | LC50 CL [5] [%] |
| --- | --- | --- | --- | --- | --- |
| Clc1ccc(N=C(OCc2cccc(Oc3ccccc3)c2)C2CCC2)cc1 [Compound 8] | 0.03 | > 0.1 | > 0.01 | 50 | 0.01 |
| CC(C)(C)C(=Nc1cccc(C(F)(F)F)c1)OCc1cccc(Oc2ccccc2)c1 [Compound 88] | > 0.05 | > 0.1 | > 0.01 | > 100 | 0.018 |
| Fc1ccc(Oc2cccc(COC(=Nc3ccc(F)c(Cl)c3)C3CC3)c2)cc1 [Compound 116] |  |  | > 0.01 | 15 | 0.00025 |
| CCc1ccc(N=C(OCc2cccc(Oc3ccccc3)c2)C(C)(C)C)cc1 [Compound 163] | > 0.05 | > 0.1 | > 0.01 | > 100 | 0.004 |
| CC(C)C(=Nc1ccc(F)c(Cl)c1)OCc1cccc(Oc2cccc(Cl)c2)c1 [Compound 203] | 0.006 | 0.06 | > 0.01 | 43 | 0.0025 |
| CC(C)C(=Nc1cc(F)c(Cl)cc1Cl)OCc1ccc(F)c(Oc2ccc(F)cc2)c1 [Compound 292] |  | 0.05 | > 0.01 | 41 | 0.00075 |
| Fc1ccc(Oc2cccc(COC(=Nc3cccc(C(F)(F)F)c3)C3CC3)c2)cc1 [Compound 294] |  | > 0.1 | > 0.01 | > 100 | 0.017 |
| CC(C)C(=Nc1ccc(F)c(Br)c1)OCc1ccc(F)c(Oc2ccccc2)c1 [Compound 299] |  | 0.017 | > 0.01 | 8 | 0.0005 |
| CC(C)C(=Nc1ccc(C(C)(C)C)cc1)OCc1ccc(F)c(Oc2ccc(Cl)cc2)c1 [Compound 301] |  | > 0.1 | > 0.01 | > 100 | 0.008 |
| CC(C)C(=Nc1cccc([N+](=O)[O-])c1)OCc1cccc(Oc2ccccc2)c1 [Compound 302] |  | > 0.1 | > 0.01 | 15 | 0.003 |
| CC(C)C(=Nc1c(F)c(F)cc(F)c1F)OCc1cccc(Oc2ccc(F)cc2)c1 [Compound 304] |  | > 0.1 | > 0.01 | > 100 | 0.0024 |
| CC(Br)C(=Nc1ccc2c(c1)OCO2)OCc1cccc(Oc2ccccc2)c1 (stereo not shown) [Compound 306] |  | 0.1 | > 0.01 | > 100 | 0.005 |
| CC(C)C(=Nc1ccc([N+](=O)[O-])c(C(F)(F)F)c1)OCc1cccc(Oc2ccccc2)c1 [Compound 307] |  | 0.08 | > 0.01 | > 100 | 0.002 |
| CC(C)C(=Nc1ccc(F)c(I)c1)OCc1ccc(F)c(Oc2ccccc2)c1 [Compound 334] | 0.0006 | 0.013 | > 0.01 | 9 | 0.0007 |
| CC(C)c1ccc(N=C(OCc2cccc(Oc3ccccc3)c2)C2CCC2)cc1 [Compound 339] | 0.03 | > 0.1 | > 0.01 | > 100 | 0.017 |
| CC(C)C(=Nc1cccc(OC(F)(F)F)c1)OCc1ccc(F)c(Oc2ccc(Cl)cc2)c1 [Compound 436] | 0.0006 | < 0.1 | > 0.01 | < 100 |  |

| SMILES | LC50 BBA [1] [%] | LC50 TBW E (eggs) [2] [%] | LC50 MW [3] [%] | LC50 HF [4] [µg] | LC50 CL [5] [%] |
| --- | --- | --- | --- | --- | --- |
| Fc1ccc(COC(=Nc2ccc(C(F)(F)F)cc2)C2CC2)cc1Oc1ccccc1 [Compound 443] | 0.0003 |  | < 0.01 | < 100 | 0.00015 |
| Fc1ccc(COC(=Nc2ccc(C(F)(F)F)cc2)C2CC2)cc1Oc1ccc(Cl)cc1 [Compound 444] | 0.0006 |  | > 0.01 | > 100 | 0.00015 |
| CC(C)C(=Nc1ccc(F)c(I)c1)OCc1cccc(Oc2ccc(F)cc2)c1 [Compound 449] |  | 0.025 | 0.0075 | 13 | 0.0001 |
| CC(C)C(=Nc1ccc2c(c1)OC(C)(C)O2)OCc1cccc(Oc2ccc(Cl)cc2)n1 [Compound 468] | 0.05 | > 0.1 |  | 50 | > 0.1 |
| CC(C)C(=Nc1cccc(C(F)(F)F)c1)OCc1cccc(Oc2ccncc2)c1 [Compound 469] | > 0.05 | > 0.1 |  | 40 | 0.02 |
| CC(C)C(=Nc1ccc(F)c(Cl)c1)OCc1cccc(Oc2ccncc2)c1 [Compound 470] | > 0.05 | > 0.1 |  | 25 | 0.02 |
| CC(C)C(=Nc1cccc(C(F)(F)F)c1)OCc1cccc(Oc2ccc(Cl)cc2)n1 [Compound 477] |  | > 0.1 | 0.0076 | 20 | 0.0003 |
| CC(C)C(=Nc1ccc(Br)cc1)OCc1coc(Cc2ccccc2)c1 [Compound 478] |  | > 0.1 | > 0.01 | 15 | 0.0037 |
| C=CCOc1cccc(COC(=Nc2cccc(C(F)(F)F)c2)C(C)C)c1 [Compound 480] | > 0.05 | > 0.1 |  | > 100 | 0.01 |
| CC(C)C(=Nc1cccc(C(F)(F)F)c1)OCc1coc(Cc2ccccc2)c1 [Compound 482] |  | > 0.1 | > 0.01 | 36 | 0.01 |
| CC(C)C(=Nc1ccc2c(c1)OCO2)OCc1coc(Cc2ccccc2)c1 [Compound 483] |  | 0.05 | > 0.01 | 6 | 0.001 |
| CC(C)C(=Nc1ccc(F)cc1F)OCc1coc(Cc2ccccc2)c1 [Compound 486] |  | > 0.1 | > 0.01 | 15 | > 0.1 |
| CC(C)C(=Nc1ccc(F)c(Cl)c1)OC(C)c1cccc(Oc2ccccc2)n1 (stereo not shown) [Compound 498] | > 0.05 | > 0.1 |  | 49 | 0.002 |
| CC(C)C(=Nc1cccc(C(F)(F)F)c1)OC(C)c1cccc(Oc2ccccc2)n1 (stereo not shown) [Compound 499] | > 0.05 | > 0.1 |  | 63 | 0.0024 |
| COCc1c(F)c(F)c(COC(=Nc2ccc3c(c2)OCO3)C(C)C)c(F)c1F [Compound 501] | > 0.05 | > 0.1 |  | 20 | 0.00045 |
| CC(C)C(=Nc1cccc(C(F)(F)F)c1)OCc1ccnc(Oc2ccc(F)cc2)c1 [Compound 508] |  | > 0.1 | > 0.01 | > 100 | 0.013 |
